{
  "source": "paper PMC4865847",
  "about": "“Putative histidine kinase inhibitors with antibacterial effect against multi-drug resistant clinical isolates identified by in vitro and in silico screens” (Scientific Reports, 2016)",
  "key": {"[1]": {"experiment": "Hemolysis assay", "assay_type": "cell-based", "settings": "human", "method": "Hemolytic activity against human erythrocytes taken from a healthy donor was measured as previously described. The hemolysis experiments were carried out in accordance with the guidelines of the United Arab Emirates University (UAEU) Research Ethics Review Board. All experimental protocols were approved by the Research Ethics Review Board of UAEU and informed consent was obtained from all donors."}, "[2]": {"system": "Acinetobacter baumannii", "experiment": "Antibacterial susceptibility testing (MIC), A. baumannii", "assay_type": "cell-based", "settings": "MDR clinical isolate NM8, read-out: MIC A. baumannii NM8", "method": "(§1) Bacterial strains used in this study for antibacterial susceptibility testing (Table S5) were propagated using standard microbiological procedures. Minimal inhibitory concentrations (MICs) were determined following a standard double-dilution method. MICs were recorded as the lowest concentration of the compound where no visible growth was observed. After plating the dilutions around the MIC or growing them in fresh MH media, minimal bactericidal concentration (MBC) was recorded as the lowest concentration of the compound at which no colonies were formed or no growth was observed, respectively. For S. pneumoniae MICs were determined by adapting the standard double-dilution method to anaerobic conditions and of this microorganism (use of Todd Hewitt Yeast extract with 200 U/mL of catalase and continuous monitoring of growth)."}, "[3]": {"target": "T1, E. coli PhoR (PhoR^E) (Escherichia coli, UniProt P08400)", "T1 construct": "The catalytic portion (DHp and CA domain) of E. coli PhoR (PhoR^E); made in house; host or cells: E. coli RIL", "T1 sequence (P08400 210-425)": "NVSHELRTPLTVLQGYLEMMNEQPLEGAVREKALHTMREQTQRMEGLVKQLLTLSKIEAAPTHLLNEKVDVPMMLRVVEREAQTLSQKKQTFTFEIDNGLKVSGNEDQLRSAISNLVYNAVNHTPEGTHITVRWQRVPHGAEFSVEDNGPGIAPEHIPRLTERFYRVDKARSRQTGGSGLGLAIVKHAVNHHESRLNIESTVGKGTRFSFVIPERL", "experiment": "In vitro autophosphorylation kinase assay with γ-32P-ATP, PhoR^E", "assay_type": "biochemical", "method": "(§2) To evaluate the inhibitory capacity of selected hits from DSF, SBVS and LBSS in vitro autophosphorylation kinase assays with γ-^32P-ATP were performed as previously described. Ligands were dissolved in 100% DMSO. […] Controls lacking ligands contained an equal concentration of DMSO. Inhibition of autophosphorylation was determined by incubating 0.12 mg/ml (≈4 μM) HK and up to 20 mM fragment in kinase buffer (50 mM Tris HCl, pH 8.5, 50 mM KCl, 5 mM MgCl2, 0.5 mM EDTA and 0.1 mM DTT). Autophosporylation reactions were initiated by addition of 0.1 μCi/μl γ-^32P-ATP containing from 0.03 to 0.06 μM ATP (final concentrations). Autophosphorylation was quenched with 2xSDS-PAGE sample buffer supplemented with 50 mM EDTA. […] After electrophoresis, the bottoms of the gels were removed to lower the background from the unincorporated radiolabeled ATP. Gels were dried without staining on a Bio-Rad Gel Air drying system and the phosphorylated protein was quantified by phosphor-imaging. Prism GraphPad was used for curve fitting and statistical analysis."}, "[4]": {"system": "Staphylococcus aureus", "experiment": "Antibacterial susceptibility testing (MIC/MBC), S. aureus", "assay_type": "cell-based", "method": "(§3) Minimal inhibitory concentrations (MICs) were determined following a standard double-dilution method. […] For S. pneumoniae MICs were determined by adapting the standard double-dilution method to anaerobic conditions and of this microorganism (use of Todd Hewitt Yeast extract with 200 U/mL of catalase and continuous monitoring of growth)."}, "[5]": {"system": "Klebsiella pneumoniae", "experiment": "Antibacterial susceptibility testing (MIC), K. pneumoniae", "assay_type": "cell-based", "settings": "Klebsiella pneumoniae, ATCC700603, strain ATCC 700603", "method": "as §1"}, "[6]": {"system": "Streptococcus suis", "experiment": "Antibacterial susceptibility testing (MIC), S. suis", "assay_type": "cell-based", "method": "as §1"}, "[7]": {"system": "Pseudomonas aeruginosa", "experiment": "Antibacterial susceptibility testing (MIC), P. aeruginosa", "assay_type": "cell-based", "settings": "Pseudomonas aeruginosa, ATCC27853; strain ATCC 27853", "method": "as §1"}, "[8]": {"system": "Staphylococcus epidermidis", "experiment": "Antibacterial susceptibility testing (MIC/MBC), S. epidermidis", "assay_type": "cell-based", "method": "as §3"}, "[9]": {"target": "T2, S. pneumoniae WalK (Streptococcus pneumoniae, UniProt Q8DPL8)", "T2 construct": "WalK (amino acids from 208 to 449); N-terminal His6-3C site of vector pOPINF (own knowledge of the vector); made in house; host or cells: E. coli RIL", "T2 sequence (Q8DPL8 208-449)": "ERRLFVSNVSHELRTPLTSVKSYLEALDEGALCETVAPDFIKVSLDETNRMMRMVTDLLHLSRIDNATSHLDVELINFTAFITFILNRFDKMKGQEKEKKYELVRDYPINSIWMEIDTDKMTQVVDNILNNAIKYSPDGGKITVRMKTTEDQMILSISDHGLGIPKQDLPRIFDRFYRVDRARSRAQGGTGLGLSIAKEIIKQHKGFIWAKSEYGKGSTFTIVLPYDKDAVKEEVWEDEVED", "experiment": "In vitro autophosphorylation kinase assay with γ-32P-ATP, WalK", "assay_type": "biochemical", "settings": "autophosphorylation, one time point (30 sec), 10% DMSO; read-out: IC50 WalK", "method": "as §2"}, "[10]": {"system": "Stenotrophomonas maltophilia", "experiment": "Antibacterial susceptibility testing (MIC), S. maltophilia", "assay_type": "cell-based", "settings": "clinical isolate B32/1, read-out: MIC S. maltophilia B32/1", "method": "as §1"}, "[11]": {"experiment": "Solubility in kinase buffer", "assay_type": "physicochemical", "settings": "kinase buffer in the presence of 10% DMSO"}, "[12]": {"system": "Escherichia coli", "experiment": "Antibacterial susceptibility testing (MIC/MBC), E. coli", "assay_type": "cell-based", "settings": "Escherichia coli", "method": "as §3"}},
  "note": "Like-named read-outs stand apart in the source and are kept apart here.",
  "data": [
    {"compound": "Oc1cccc2[nH]c3ccccc3c12", "note": "[F2.8]", "values": [
      {"measurement": "HC50", "setting": "[1]", "result": "> 500", "unit": "µg/mL"},
      {"measurement": "MIC", "setting": "[2]", "result": "> 500", "unit": "µg/mL"},
      {"measurement": "inhibition at 2000 µM", "setting": "[3]; 2 mM, 30 sec, compared to negative control", "result": "> 50", "unit": "%"},
      {"measurement": "IC50", "setting": "[3]; autophosphorylation, one time point (30 sec), 10% DMSO, read-out: IC50 PhoR^E", "result": 720, "unit": "µM"},
      {"measurement": "MIC", "setting": "[4]; Staphylococcus aureus, ATCC reference strain 25293, read-out: MIC S. aureus 25293", "result": 250, "unit": "µg/mL"},
      {"measurement": "MBC", "setting": "[4]; Staphylococcus aureus, DSM20231, strain DSM 20231, read-out: MBC S. aureus DSM 20231", "result": 63, "unit": "µg/mL"},
      {"measurement": "MIC", "setting": "[4]; Staphylococcus aureus, DSM20231, strain DSM 20231, read-out: MIC S. aureus DSM 20231", "result": "31 to 250", "unit": "µg/mL"},
      {"measurement": "MIC", "setting": "[4]; Staphylococcus aureus, MRSA clinical isolate 127/08, read-out: MIC S. aureus 127/08", "result": 250, "unit": "µg/mL"},
      {"measurement": "MIC", "setting": "[4]; Staphylococcus aureus, MRSA clinical isolate 145/08, read-out: MIC S. aureus 145/08", "result": 250, "unit": "µg/mL"},
      {"measurement": "MIC", "setting": "[4]; Staphylococcus aureus, MRSA clinical isolate 274/08, read-out: MIC S. aureus 274/08", "result": 250, "unit": "µg/mL"},
      {"measurement": "MIC", "setting": "[4]; Staphylococcus aureus, MRSA, MRSA clinical isolate T4/6, read-out: MIC S. aureus T4/6", "result": 250, "unit": "µg/mL"},
      {"measurement": "MIC", "setting": "[4]; Staphylococcus aureus, MRSA, MRSA clinical isolate V4180, read-out: MIC S. aureus V4180", "result": 250, "unit": "µg/mL"},
      {"measurement": "MIC", "setting": "[4]; Staphylococcus aureus, MRSA, summary over strains, read-out: MICs for the MRSA strains and S. aureus 25293", "result": "125 to 500", "unit": "µg/mL"},
      {"measurement": "MIC S. aureus DSM 20231", "setting": "[4]; strain DSM 20231", "result": 31, "unit": "µg/mL"},
      {"measurement": "MIC", "setting": "[5]", "result": 250, "unit": "µg/mL"},
      {"measurement": "MIC", "setting": "[6]; Streptococcus suis, read-out: MIC Streptococcus suis 3881/S10, strain 3881/S10", "result": 250, "unit": "µg/mL"},
      {"measurement": "MIC Streptococcus suis 3881/S10", "setting": "[6]; strain 3881/S10", "result": 125, "unit": "µg/mL"},
      {"measurement": "MIC", "setting": "[7]", "result": "> 500", "unit": "µg/mL"},
      {"measurement": "MBC", "setting": "[8]; Staphylococcus epidermidis, DSM20044, strain DSM 20044", "result": 250, "unit": "µg/mL"},
      {"measurement": "MIC", "setting": "[8]; Staphylococcus epidermidis, DSM20044, strain DSM 20044, read-out: MIC S. epidermidis DSM 20044", "result": "31 to 500", "unit": "µg/mL"},
      {"measurement": "MIC", "setting": "[8]; Staphylococcus epidermidis, clinical isolate T7/3, read-out: MIC S. epidermidis T7/3", "result": 63, "unit": "µg/mL"},
      {"measurement": "MIC", "setting": "[8]; Staphylococcus epidermidis, clinical isolate T37/8, read-out: MIC S. epidermidis T37/8", "result": 250, "unit": "µg/mL"},
      {"measurement": "MIC", "setting": "[8]; Staphylococcus epidermidis, clinical isolate T6119, read-out: MIC S. epidermidis T6119", "result": 250, "unit": "µg/mL"},
      {"measurement": "MIC", "setting": "[8]; Staphylococcus epidermidis, strain RP62A (biofilm producer), read-out: MIC S. epidermidis RP62A", "result": 250, "unit": "µg/mL"},
      {"measurement": "MIC", "setting": "[8]; Staphylococcus epidermidis, strain RP62A/1 (non-biofilm producer), read-out: MIC S. epidermidis RP62A/1", "result": 250, "unit": "µg/mL"},
      {"measurement": "MIC", "setting": "[8]; Staphylococcus epidermidis, summary over strains, read-out: MICs for the S. epidermidis strains", "result": "31 to 250", "unit": "µg/mL"},
      {"measurement": "MIC S. epidermidis DSM 20044", "setting": "[8]; strain DSM 20044", "result": 31, "unit": "µg/mL"},
      {"measurement": "IC50", "setting": "[9]", "result": "> 2000", "unit": "µM"},
      {"measurement": "MIC", "setting": "[10]", "result": "> 500", "unit": "µg/mL"},
      {"measurement": "solubility in kinase buffer", "setting": "[11]", "result": "good solubility"},
      {"measurement": "MIC", "setting": "[12]; ATCC25276, strain ATCC 25276, read-out: MIC E. coli ATCC 25276", "result": 500, "unit": "µg/mL"},
      {"measurement": "MBC", "setting": "[12]; strain CFT 073, read-out: MBC E. coli CFT 073", "result": 500, "unit": "µg/mL"},
      {"measurement": "MIC", "setting": "[12]; summary over E. coli strains, read-out: antibacterial effects (MIC) against E. coli", "result": "≥ 63", "unit": "µg/mL"}
    ]}
  ]
}
